Assays:
TNFα mRNA = experiment: Cytokine mRNA expression inhibitory ability, TNFα, LPS-treated BV2 cells; assay type: cell-based; settings: 1 μM compound 24 hours, then 1000 ng/ml LPS 24 hours
Method: (§1) Evaluation of cytokine mRNA expression inhibitory ability by inflammatory response
(§2) In order to identify inhibition of p-p38 MAPK, the inhibition of p38 MAPK was identified by treating each compound to BV2 cells obtained by converting microglia that induces inflammation according to p-p38 MAPK activity in the brain into cancerous cells. Briefly, BV2 cells were cultured in Dulbecco's modified Eagle Medium supplemented with 10% fetal bovine serum and penicillin/streptomycin (100 U/ml). BV2 cells were treated with 1 μM of Compounds 4 to 6 according to the present disclosure in a culture dish respectively and cultured for 24 hours in a CO2 incubator, and then treated with 1000 ng/ml of LPS, followed by additional culture for 24 hours in a CO2 incubator.
(§3) After the cell culture was completed according to the experimental conditions, washing was performed with cold phosphate buffered saline (PBS). The cells were then collected and centrifuged at 1200 rpm for 3 minutes. RNA was extracted according to the method provided in the Hybrid-R total RNA purification kit (GeneAllR), 305-101). After measuring the concentration and purity of RNA using Nanodrop, cDNA was synthesized according to the method provided in TOPscript RT DryMIX (Enzynomics, RT200). […]

p-p38 MAPK [1] = biological target: p-p38 MAPK (Homo sapiens (Human), UniProt Q16539); experiment: p38 MAPK protein inhibitory ability in brain-derived cells (p-p38 immunoblot, SH-SY5Y); assay type: cell-based
Method: Evaluation of p38 MAPK protein inhibitory ability in brain-derived cells
In order to identify inhibition of p-p38 MAPK in brain cells, the inhibition of p38 MAPK was identified by inducing inflammation after treating each compound to SH-SYSY cells obtained by converting human neurons into cancerous cells. In short, SH-SY5Y cells were cultured in Minimum essential medium/Eagle's balanced salts supplemented with 10% fetal bovine serum and penicillin/streptomycin (100 U/ml). SH-SY5Y cells were treated with 1 μM of Compounds 4 and 6 according to the present disclosure in a culture dish respectively and cultured for 24 hours in a CO2 incubator, and then treated with 1000 ng/ml of LPS, followed by additional culture for 6 hours in a CO2 incubator.
(§4) After cell culture was terminated according to the experimental conditions, cells were washed with cold phosphate buffered saline (PBS). The cells were then collected and centrifuged at 1200 rpm for 3 minutes. The cells in the sediment were lysed with 2X sample buffer (1M Tris-HCl pH 6.8, 50% glycerol, 10% SDS, 2-mercaptoethanol, 1% bromophenol blue) and boiled at 100° C. for 10 minutes. The prepared protein samples were subjected to sodium dodecyl sulfate poly acrylamide gel electrophoresis and transferred to PVDF membrane (Millipore). For a specific binding reaction between the protein in the PVDF membrane and antibody, blocking was performed in a 5% bovine serum albumin (BSA, RMbio) solution. Subsequently, the BSA solution was discarded, and the membrane was washed with PBS-T (0.5% Tween 20 in PBS). The binding reaction of the protein in the membrane and antibody was performed overnight at 4° C. and washed again with PBS-T. Finally, a secondary antibody (Cell signaling Technology) conjugated with horse radish peroxidase (HRP) was diluted in PBS-T and reacted at room temperature for 2 hours. Luminata Forte HRP substrate (Millipore) was used to determine the amount of protein in the membrane, the results of which are shown in Table 8 below.

p-p38 MAPK [2] = biological target: p-p38 MAPK (Mus musculus (Mouse), UniProt P47811); experiment: p38 MAPK protein inhibitory ability in normal brain cells (p-p38 immunoblot, primary neurons); assay type: cell-based, ICR mice
Description: Evaluation of p38 MAPK protein inhibitory ability in normal brain cells
In order to identify inhibition of p-p38 MAPK in normal cells rather than cancer cells, the inhibition of p38 MAPK was identified by inducing inflammation after treating neuron cells obtained from cerebrum of ICR mice with each compound. In short, neurons were collected from the cerebrum of the embryos of ICR mice 17-18 days after gestation and cultured for 7 days in a neurobasal medium supplemented with 2% B27 supplements, 2 mM glutamine, and penicillin/streptomycin (100 U/ml). Primary neurons were treated with 1 μM of Compounds 4 and 6 according to the present disclosure in a culture dish respectively and cultured for 24 hours in a CO2 incubator, and then treated with 1000 ng/ml of LPS, followed by additional culture for 6 hours in a CO2 incubator.
as §4, with “After the” for “After”, “conditions, washing was performed” for “conditions, cells were washed”, “reaction between” for “reaction of”, “Table 9” for “Table 8”

IL-6 mRNA = experiment: Cytokine mRNA expression inhibitory ability, IL-6, LPS-treated BV2 cells; assay type: cell-based; settings: 1 μM compound 24 hours, then 1000 ng/ml LPS 24 hours
Method: as §1, §2, §3

IL-1β mRNA = experiment: Cytokine mRNA expression inhibitory ability, IL-1β, LPS-treated BV2 cells; assay type: cell-based; settings: 1 μM compound 24 hours, then 1000 ng/ml LPS 24 hours
Method: as §1, §2, §3

Chain of p-p38 MAPK (Mus musculus (Mouse), UniProt P47811) (P47811 whole entry): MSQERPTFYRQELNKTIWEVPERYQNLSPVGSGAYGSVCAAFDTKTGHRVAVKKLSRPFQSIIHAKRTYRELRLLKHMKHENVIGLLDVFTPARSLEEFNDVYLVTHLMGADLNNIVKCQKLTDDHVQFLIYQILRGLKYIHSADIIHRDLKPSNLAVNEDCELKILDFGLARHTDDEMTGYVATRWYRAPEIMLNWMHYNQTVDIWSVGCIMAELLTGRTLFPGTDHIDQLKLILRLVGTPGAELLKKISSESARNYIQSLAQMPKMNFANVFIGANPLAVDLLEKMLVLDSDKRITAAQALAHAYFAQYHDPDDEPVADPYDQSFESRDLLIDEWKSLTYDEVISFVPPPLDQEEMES
Chain of p-p38 MAPK (Homo sapiens (Human), UniProt Q16539) (Q16539 whole entry): as the sequence (P47811 whole entry) above, with H48L, A263T counted along it

Cc1c(F)cc(C(=O)NC2CC2)cc1-c1ccc(C(=O)c2cn(CC(O)CO)c3ccccc23)cn1 (stereo not shown) [Compound 6, N-cyclopropyl-3-(5-(1-(2,3-dihydroxypropyl)-1H-indole-3-carbonyl)pyridin-2-yl)-5-fluoro-4-methylbenzamide]
TNFα mRNA inhibition (TNFα mRNA): 15.7%
p38 phosphorylation in cells derived from human (result in words) (p-p38 MAPK [1]; 1 μM): effectively inhibited p38 phosphorylation
inhibition at 1 µM (p-p38 MAPK [1]; 1 μM compound 24 hours, then 1000 ng/ml LPS 6 hours): 22.8%
p38 phosphorylation due to inflammation in normal cells (result in words) (p-p38 MAPK [2]; primary mouse neurons, 1 μM): effectively inhibited p38 phosphorylation
inhibition at 1 µM (p-p38 MAPK [2]; primary neurons from cerebrum of ICR mouse embryos, 1 μM compound 24 hours, then 1000 ng/ml LPS 6 hours): 60.7%
IL-6 mRNA inhibition (IL-6 mRNA): 14.4%
IL-1β mRNA inhibition (IL-1β mRNA): 12.6%
